In ChEMBL document CHEMBL6182838, “Structure-activity relationship expansion and microsomal stability assessment of the 2-morpholinobenzoic acid scaffold as antiproliferative phosphatidylcholine-specific phospholipase C inhibitors” (RSC Med Chem, 2025):

Assays:
Bacillus cereus = experiment: Inhibition of Bacillus cereus phosphatidylcholine specific phospholipase C (PC-PLC BC) assessed as enzyme activity by measuring formation of resorufin fluorophore 10 uM by Amplex-Red based fluorescence assay relative to control; design: scale not given: the % may be the effect or the level left
MDA-MB-231 = experiment: Antiproliferative activity against human MDA-MB-231 cells assessed as cell proliferation at 10 uM measured after 3 days incubation followed by incubated 5 hrs with [3H]-thymidine by 3H-thymidine incorporation assay relative to control; format: functional; conditions: MDA-MB-231, 72 h, time 3 day, read-out: Activity
HCT-116 = experiment: Antiproliferative activity against human HCT-116 cells assessed as cell proliferation at 10 uM measured after 3 days incubation followed by incubated 5 hrs with [3H]-thymidine by 3H-thymidine incorporation assay relative to control; format: functional; conditions: HCT-116, 72 h, time 3 day, read-out: Activity

SMILES	Activity (Bacillus cereus)	growth at 10 µM (MDA-MB-231)	growth at 10 µM (HCT-116)
O=C(NO)c1ccc(NCc2ccc(Cl)cc2)cc1N1CCOCC1	54.4%	45.5%	57.4%
O=C(NO)c1cc(NCc2cccc(Cl)c2)ccc1N1CCOCC1	30.5%		
COC(=O)c1ccc(NCc2ccc(F)cc2)cc1N1CCOCC1	80.3%	81.9%	65%
COC(=O)c1ccc(NCc2ccccc2Cl)cc1N1CCOCC1	75.9%	70.4%	43.2%
COC(=O)c1ccc(NCc2cccc(F)c2)cc1N1CCOCC1	78.9%	85.9%	71%
COc1ccccc1CNc1ccc(C2CCOCC2)c(C(=O)NO)c1	80.7%	80.7%	93.3%
COC(=O)c1ccc(NCc2cccc(Br)c2)cc1N1CCOCC1	97.4%	62.9%	34.7%
O=C(O)c1ccc(NCc2ccccc2Br)cc1N1CCOCC1	95.2%	90%	94.4%
O=C(NO)c1ccc(NCc2ccc(F)cc2)cc1N1CCOCC1	49.2%	81.6%	91.4%
O=C(NO)c1cc(NCc2ccccc2Br)ccc1N1CCOCC1		7.4%	
O=C(O)c1ccc(NCc2cccc(F)c2)cc1N1CCOCC1	84.9%	92.4%	93.3%
O=C(NO)c1ccc(NCc2cccc(Cl)c2)cc1N1CCOCC1	47.5%	39.6%	48.6%
O=C(O)c1ccc(NCc2cccc(Br)c2)cc1N1CCOCC1	95.8%	104%	101%
O=C(NO)c1ccc(NCc2ccccc2Cl)cc1N1CCOCC1	54.1%	41.8%	68.4%
COC(=O)c1ccc(NCc2ccccc2Br)cc1N1CCOCC1	36.3%	51.3%	29.5%
COc1ccccc1CNc1ccc(C(=O)O)c(N2CCOCC2)c1	105%	92.6%	102%
COc1cccc(CNc2ccc(C(=O)O)c(N3CCOCC3)c2)c1	106%	101%	103%
O=C(O)c1cc(NCc2cccc(Cl)c2)ccc1N1CCOCC1	10.7%		
COC(=O)c1ccc(NCc2ccccc2)cc1N1CCOCC1	102%	95.2%	85.4%

SMILES	Activity (Bacillus cereus)	growth at 10 µM (MDA-MB-231)	growth at 10 µM (HCT-116)
COC(=O)c1ccc(NCc2cccc(Cl)c2)cc1N1CCOCC1	55.8%	68.9%	44.3%
O=C(O)c1ccc(NCc2ccc(Cl)cc2)cc1N1CCOCC1	32.4%	88.4%	88.2%
O=C(O)c1ccc(NCc2cccc(Cl)c2)cc1N1CCOCC1	33.1%	87.2%	88.6%
O=C(NO)c1ccc(NCc2ccccc2Br)cc1N1CCOCC1	54.7%	30%	54.5%
O=C(NO)c1ccc(NCc2ccccc2F)cc1N1CCOCC1	50.9%	79.6%	87.6%
COC(=O)c1cc(N(C)Cc2ccccc2Cl)ccc1N1CCOCC1		83.8%	54.5%
COC(=O)c1cc(NCc2ccccc2Cl)ccc1C1CCOCC1	101%	25.9%	25.9%
O=C(NO)c1ccc(NCc2cccc(F)c2)cc1N1CCOCC1	49.1%	76.2%	84.3%
COC(=O)c1cc(NCc2cccc(OC)c2)ccc1C1CCOCC1	85.5%	83.9%	62.5%
COC(=O)c1ccc(NCc2ccccc2OC)cc1N1CCOCC1	104%	73.6%	55.5%
COC(=O)c1cc(NCc2ccccc2OC)ccc1C1CCOCC1	94.7%	22%	31.2%
O=C(NO)c1ccc(NCc2ccccc2)cc1N1CCOCC1	43.4%	85.7%	89.7%
COC(=O)c1cc(NCc2ccccc2F)ccc1C1CCOCC1	62.3%	17.6%	9.5%
COc1cccc(CNc2ccc(C(=O)NO)c(N3CCOCC3)c2)c1	51.4%	65.7%	77.4%
O=C(O)c1ccc(NCc2ccccc2F)cc1N1CCOCC1	82.2%	96.4%	95.2%
COc1ccc(CNc2ccc(C(=O)NO)c(N3CCOCC3)c2)cc1	45.5%	76.9%	91.5%
O=C(O)c1ccc(NCc2ccc(F)cc2)cc1N1CCOCC1	62.4%	94.8%	91.6%
O=C(O)c1ccc(NCc2ccccc2)cc1N1CCOCC1	96.6%	96.8%	92.4%
COc1ccccc1CNc1ccc(C(=O)NO)c(N2CCOCC2)c1	46.9%	70.7%	83.2%

More lines, main results first:

Activity (Bacillus cereus)	SMILES	growth at 10 µM (MDA-MB-231)	growth at 10 µM (HCT-116)
105%	O=C(O)c1cc(NCc2ccc(Br)cc2)ccc1C1CCOCC1	102%	104%
93.7%	O=C(NO)c1cc(NCc2ccc(F)cc2)ccc1C1CCOCC1	86.6%	91.6%
113%	O=C(O)c1cc(NCc2cccc(Br)c2)ccc1C1CCOCC1	107%	104%
112%	COC(=O)c1cc(NCc2ccc(Cl)cc2)ccc1C1CCOCC1	83.8%	56.7%
92.5%	O=C(NO)c1cc(NCc2ccc(Cl)cc2)ccc1C1CCOCC1	72.2%	69.9%
75.2%	O=C(NO)c1cc(NCc2cccc(Br)c2)ccc1C1CCOCC1	77.6%	78.8%
112%	O=C(O)c1cc(NCc2ccc(Cl)cc2)ccc1C1CCOCC1	115%	101%
106%	COc1cccc(CNc2ccc(C3CCOCC3)c(C(=O)O)c2)c1	104%	101%
36.2%	O=C(O)c1cc(NCc2cccc(F)c2)ccc1C1CCOCC1	104%	103%
103%	COC(=O)c1ccc(NCc2ccc(Br)cc2)cc1N1CCOCC1	68.9%	52.5%
80.6%	COc1cccc(CNc2ccc(C3CCOCC3)c(C(=O)NO)c2)c1	89.2%	94.4%
94%	O=C(NO)c1cc(NCc2ccccc2F)ccc1C1CCOCC1	88%	98.6%
44.5%	COC(=O)c1cc(NCc2cccc(F)c2)ccc1C1CCOCC1	41.3%	29.2%
45.6%	O=C(NO)c1ccc(NCc2ccc(Br)cc2)cc1N1CCOCC1	21.8%	18.1%
112%	COC(=O)c1cc(NCc2ccccc2Br)ccc1C1CCOCC1	16.4%	20.3%
104%	COC(=O)c1cc(NCc2cccc(Cl)c2)ccc1C1CCOCC1	48.3%	37.2%
82.8%	O=C(NO)c1cc(NCc2ccccc2Cl)ccc1C1CCOCC1	86.8%	86.7%

Activity (Bacillus cereus)	SMILES	growth at 10 µM (MDA-MB-231)	growth at 10 µM (HCT-116)
80.7%	O=C(NO)c1cc(NCc2ccccc2)ccc1C1CCOCC1	90%	80.2%
54%	O=C(O)c1cc(NCc2ccccc2)ccc1C1CCOCC1	107%	99.8%
108%	COc1ccccc1CNc1ccc(C2CCOCC2)c(C(=O)O)c1	100%	106%
109%	O=C(O)c1cc(NCc2cccc(Cl)c2)ccc1C1CCOCC1	114%	103%
116%	O=C(O)c1cc(NCc2ccccc2Br)ccc1C1CCOCC1	108%	99.5%
71.4%	O=C(NO)c1cc(NCc2ccc(Br)cc2)ccc1C1CCOCC1	61.6%	60.1%
52%	COC(=O)c1cc(NCc2ccc(F)cc2)ccc1C1CCOCC1	36%	25.3%
99.1%	O=C(O)c1ccc(NCc2ccc(Br)cc2)cc1N1CCOCC1	99.7%	101%
88.2%	O=C(NO)c1cc(NCc2cccc(F)c2)ccc1C1CCOCC1	84.4%	94.4%
43.4%	O=C(O)c1cc(NCc2ccccc2F)ccc1C1CCOCC1	113%	104%
80.4%	COc1ccc(CNc2ccc(C3CCOCC3)c(C(=O)NO)c2)cc1	82%	88.6%
77.2%	COC(=O)c1cc(NCc2ccccc2)ccc1C1CCOCC1	29.3%	19.8%
75.5%	O=C(NO)c1cc(NCc2ccccc2Br)ccc1C1CCOCC1	74%	78.3%
75.4%	COC(=O)c1cc(NCc2ccc(OC)cc2)ccc1C1CCOCC1	71.2%	54.5%
110%	COC(=O)c1cc(NCc2ccc(Br)cc2)ccc1C1CCOCC1	79.6%	61.2%
102%	O=C(O)c1cc(NCc2ccc(F)cc2)ccc1C1CCOCC1	107%	104%
